Molecular target: Mpg (Neisseria gonorrhoeae, UniProt Q5F676)
Assay: fluorescence thermal shift (Sypro-Orange)
Format: binding
Conditions: read-out: dTm at 5 μM

Mpg, sequence (Q5F676 31-430): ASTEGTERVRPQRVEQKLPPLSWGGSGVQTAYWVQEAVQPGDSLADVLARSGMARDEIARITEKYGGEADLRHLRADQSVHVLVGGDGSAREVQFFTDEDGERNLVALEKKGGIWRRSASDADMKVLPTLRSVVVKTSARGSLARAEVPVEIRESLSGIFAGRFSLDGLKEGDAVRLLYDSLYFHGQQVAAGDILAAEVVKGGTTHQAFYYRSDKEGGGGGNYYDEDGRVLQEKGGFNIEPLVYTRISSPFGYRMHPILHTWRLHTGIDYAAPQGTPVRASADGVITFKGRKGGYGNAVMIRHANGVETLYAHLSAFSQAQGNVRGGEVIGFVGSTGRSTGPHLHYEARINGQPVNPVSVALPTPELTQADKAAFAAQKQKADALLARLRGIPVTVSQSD

Structure (SMILES)	ΔTm at 5 µM [°C]
O=C1O[C@H]2[C@@H]3OC(=O)c4cc(O)c(O)c(O)c4-c4c(O)c(O)c5oc(=O)c6c(c(O)c(O)c7oc(=O)c4c5c76)-c4c(cc(O)c(O)c4O)C(=O)OC[C@H]3OC(O)[C@@H]2OC(=O)c2cc(O)c(O)c(O)c2-c2c1cc(O)c(O)c2O (mixture of isomers) [punicalagin]	-4.4
O=C(O)C[C@@H]1C(=O)O[C@H]2[C@H](OC(=O)c3cc(O)c(O)c(O)c3)[C@@H](OC(=O)c3cc(O)c(O)c4c3[C@H]1[C@@H](O)C(=O)O4)[C@H](OC(=O)c1cc(O)c(O)c(O)c1)O[C@@H]2COC(=O)c1cc(O)c(O)c(O)c1 [chebulinic acid]	-2.9
